Experimental findings from patent US9150557B1, “Compositions and methods for the treatment of hyperglycemia” (CELLIX BIO PRIVATE LIMITED, priority 2014, dated 2015) are described below.

A short description of the data set: Water solubility: distilled water added to a weighed amount until a clear solution is obtained. Type of data set: physicochemical. The conditions noted are these: for solubility: thermodynamic from solid, distilled water, weight in mg divided by volume of clear solution in mL. As for the experimental part:
Measurement of the water solubility of the test compounds is accomplished by using methods well known to those skilled in the art. Specifically, to a weighed amount of the test compound of the example compound Formula I (1-3) distilled water was added in small proportions until a clear solution was obtained. The total volume of the solution is measured. The water solubility is calculated by dividing the weight of the salt, in milligrams (mg), by the volume of the solution, in mL. […] The compound of Formula I (1-3) is therefore, at least 260 times more soluble in water than EPA itself. This is a clear indication of an unexpectedly high degree of bioavailability of the compositions of the invention. Highly water soluble medicinal preparations, when administered orally, result in efficient absorption from the gastrointestinal tract in to systemic circulation. Furthermore, water soluble preparations are especially suitable for parenteral administration.

In general, solubility refers to the dissolved amount per volume that the medium holds. A higher solubility goes with much dissolved substance. For the compound `CC/C=C\C/C=C\C/C=C\C/C=C\C/C=C\CCCC(=O)O` [EPA, Eicosapentaenoic acid, reference compound], the solubility is below 0.2 mg/mL.
The compound `CC/C=C\C/C=C\C/C=C\C/C=C\C/C=C\CCCC(=O)OCCCN1CC(O)[C@@H](O)[C@H](O)C1CO` (stereo partly drawn) [Formula I (1-3)] showed a solubility of 68.6 mg/mL. In addition, the “times more soluble in water than EPA” value (ratio of water solubility versus eicosapentaenoic acid (EPA)) is reported as “at least 260 times”.
